Patent publication US20140221301A1, “COMBINATION TREATMENT FOR CANCER” (priority 2011, published 2014)

What was measured:
complex II = experiment: Respiratory chain enzyme activity relative to citrate synthase, complex II; format: cell-based, human; conditions: TEX cells, 2.5 μM and 5 μM, 72 hours
Experimental: FIG. 4. Tigecycline decreases mitochondrial Cox-1 protein levels in TEX cells. (A) Cells from TEX, OCI-AML2 and two primary AML patients were treated with increasing concentrations (2.5 μM and 5 μM) of tigecycline for 36 and 48 hours of tigecycline. Total proteins were extracted and analyzed by western blotting for Cox-1, Cox-2, Cox-4, grp78, XIAP, actin and tubulin. (B) TEX and AML patient cells were treated with increasing concentrations (2.5 μM and 5 μM) of tigecycline. Cox-1, Cox-2, and Cox-4 mRNA expression relative 18S was determined by quantitative RT-PCR. Data is shown as mean±SD. (C) TEX cells were treated with increasing concentrations of tigecycline and chloramphenicol (CAP) for 72 hours. Complex I, II and IV enzyme activity relative to citrate synthase activity was determined as described in materials and methods. […] Mitochondrial membrane potential (ΔΨ) was determined by staining cells with JC-1 dye, and flow cytometry analysis (Red/Green ratio). Reactive oxygen species generation (ROS) was determined by staining with h2-DCFDA and Dihydroethidium (DHE).
The effect of tigecycline treatment on enzyme activity of the respiratory chain complexes relative to the mitochondrial non-respiratory chain enzyme citrate synthase was examined. TEX leukemia cells were treated with tigecycline for […] and then respiratory chain enzyme relative to citrate synthase activity was analyzed. […]

primary human AML cells = format: in vivo, NOD-SCID mice
Experimental: FIG. 3. Tigecycline has anti-leukemia activity in vivo. (A, B) Human leukemia cells (OCI-AML2) were injected subcutaneously into the flank of SCID mice. Seven days after injection, once tumors were palpable, mice were treated with tigecycline (50 mg/kg or 100 mg/kg twice daily by i.p. injection) or vehicle control (n=10 per group). Fourteen days after injection of cells, mice were sacrificed, tumors excised and the volume and mass of the tumors were measured. The tumor mass and the mean volume+SD are shown. Differences in tumor volume and mass were analyzed by an unpaired t-test: *p<0.001. (C) Tumours from two control mice, and three tigecycline-treated mice were excised after 5 days of treatment and total proteins were extracted and analyzed by western blotting for Cox-1, Cox-2, Cox-4, and tubulin. […] Following treatment, human leukemia cell engraftment in the injected right femur was measured by FACS analysis for human CD45^+CD19^−CD33^+ cells. […] Six weeks later, human leukemia cell engraftment in the injected right femur was measured by FACS analysis for human CD45^+CD19^−CD33^+cells. […]
To assess tigecycline in mouse models of primary AML, primary human AML cells were isolated form a fresh peripheral blood sample from a patient with AML. A frozen aliquot was thawed, counted and resuspended in PBS. […]

solid tumour cell lines = experiment: Cell growth and viability, MTS assay, solid tumour cell lines; format: cell-based; conditions: 72 hours
Experimental: FIG. 1. […] (A) TEX and (B) M9-ENL1 cells were plated in 96-well plates and drugs were added to the wells (5 μL per well) for final concentrations of 10 μM (shown) and 1 μM. Cell growth and viability was measured at 48 hours (M9-ENL-1) and 72 hours (TEX) by MTS assay. Cell viability is shown for each compound as a percent of cells treated with DMSO alone. (C) Leukemia, (D) myeloma, and (E) solid tumor cell lines were seeded in 96-well plates and then treated with increasing concentrations of tigecycline. Cell growth and viability was measured at 72 hours by MTS assay. Cell viability is expressed as mean percentage plus or minus SD (n=3) relative to vehicle-treated cells. […] Cell viability was measured at 72 hours by MTS assay. Cell viability is expressed as mean percentage plus or minus SD (n=3) relative to vehicle-treated cells.
Human leukemia (OCI-AML2, HL60, U937) cell lines were maintained in RPMI 1640 medium. Myeloma (LP-1, KMS11, 8226, JJN3, OP-M2) cell lines were maintained in Iscove's media. […]
Cell growth and viability was assessed by the MTS assay (Promega, Madison, Wis.) according to the manufacturer's instructions. Apoptosis and cell death was measured by Annexin V-fluroscein isothiocyanate (FITC; Biovision Research Products, Mountain View, Calif.), propidium iodide staining and flow cytometry according to the manufacturer's instructions and as previously described^30.

[1] = PK study in mice, single dose i.p.; conditions: mouse, in vivo, ip, single dose 50 mg/kg i.p.

Question: With `CN(C)c1cc(NC(=O)CNC(C)(C)C)c(O)c2c1C[C@H]1C[C@H]3[C@H](N(C)C)C(O)=C(C(N)=O)C(=O)[C@@]3(O)C(O)=C1C2=O` [tigecycline] as the molecule, how does the “complex II activity relative to citrate synthase” value (complex II) read?
Answer: Its value is “less affected”.

Question: What about the “engraftment of human AML primary cells (CD45+CD33+CD19-)” value (primary human AML cells; 100 mg/kg i.p. daily for three weeks) of the same molecule?
Answer: The value was “significantly decreased”.

Question: And the “toxicity in treated mice” value (primary human AML cells; mouse, in vivo)?
Answer: The value was “without gross organ toxicity or loss of body weight”.

Question: What about the IC50 (solid tumour cell lines) of the same molecule?
Answer: Its IC50 is over 10 µM.

Question: And the Tmax [1]?
Answer: Its Tmax is about 0.5 h.

Question: What about the half-life [1] of the same molecule?
Answer: Its half-life is about 4.5 h.
